Experimental data as given in ChEMBL document CHEMBL1151303, “New macrodiolide antibiotics, 11-O-monomethyl- and 11, 11'-O-dimethylelaiophylins, from Streptomyces sp. HKI-0113 and HKI-0114” (J Nat Prod, 1998).
≈ marks a conversion by molar mass, not a printed value.

How the values were obtained:
L929 = experiment: Cytotoxicity against mouse L929 cells after 72 hrs by methylene blue staining; format: cell-based; conditions: L929, 72 h
Candida albicans = experiment: Antimicrobial activity against Candida albicans by agar plate diffusion assay; format: functional
Mycobacterium sp. = experiment: Antimicrobial activity against Mycobacterium sp. SG 987 by agar plate diffusion assay; format: functional
Staphylococcus aureus = experiment: Antimicrobial activity against Staphylococcus aureus 134/94 by agar plate diffusion assay; format: functional
Bacillus subtilis = experiment: Antimicrobial activity against Bacillus subtilis ATCC 6633 by agar plate diffusion assay; format: functional
Enterococcus faecium = experiment: Antimicrobial activity against Enterococcus faecium 1528 by agar plate diffusion assay; format: functional
HeLa = experiment: Cytotoxicity against human HeLa cells by methylene blue staining; format: functional, cell-based
K562 = experiment: Cytotoxicity against human K562 cells after 72 hrs; format: functional, cell-based; conditions: K562, 72 h

CC[C@@H]1[C@@H](C)O[C@@](OC)([C@@H](C)[C@H](O)[C@H](C)[C@H]2OC(=O)/C=C/C=C/[C@H](C)[C@@H]([C@@H](C)[C@@H](O)[C@H](C)[C@@]3(OC)C[C@@H](O[C@H]4C[C@H](O)[C@H](O)[C@H](C)O4)[C@H](CC)[C@@H](C)O3)OC(=O)/C=C/C=C/[C@@H]2C)C[C@H]1O[C@H]1C[C@H](O)[C@H](O)[C@H](C)O1
IC50 (L929): 2.4 µg/mL (≈ 2.28 µM)
inhibition zone (IZ) (Candida albicans): 0 mm
inhibition zone (IZ) (Mycobacterium sp.): 15 mm
inhibition zone (IZ) (Staphylococcus aureus): 13 mm
inhibition zone (IZ) (Bacillus subtilis): 23 mm
inhibition zone (IZ) (Enterococcus faecium): 17 mm
IC50 (HeLa): 2.2 µg/mL (≈ 2.09 µM)
IC50 (K562): 1.3 µg/mL (≈ 1.23 µM)
